{
  "source": "patent US20140005177A1",
  "about": "“PYRIDINYL- AND PYRAZINYL-METHYLOXY-ARYL DERIVATIVES USEFUL AS INHIBITORS OF SPLEEN TYROSINE KINASE (SYK)” (GLAXO GROUP LIMITED, priority 2011, published 2014)",
  "origin": "cited, not measured here",
  "key": {"[1]": {"conditions": "dosed intranasally, phase I/II, allergic rhinitis; cited from earlier work"}, "[2]": {"conditions": "further phase II clinical trial, allergic rhinitis; cited from earlier work"}, "B lymphoma (BKS-2)": {"test_system": "B lymphoma (BKS-2)", "conditions": "murine BKS-2 B lymphoma model; cited from earlier work"}},
  "data": [
    {"compound": "Oc1cccc(Nc2ncc(F)c(Nc3cccc(O)c3)n2)c1", "note": "[Example R112]", "values": [
      {"measurement": "PGD2", "setting": "[1]", "value": "statistically significant decrease"},
      {"measurement": "clinical safety", "setting": "[1]", "value": "safe across a range of indicators"},
      {"measurement": "efficacy versus placebo", "setting": "[2]", "value": "lack of efficacy versus placebo"}
    ]},
    {"compound": "COc1cc(/C=C/C(=O)CC(=O)/C=C/c2ccc(O)c(OC)c2)ccc1O", "note": "[curcumin]", "values": [
      {"measurement": "tumour burden as measured by the total splenocyte number", "setting": "B lymphoma (BKS-2)", "value": "significant reduction of tumour burden"}
    ]}
  ]
}
